Where “and” joins values, the source holds several entries; their conditions need not be identical. Equal values may be shown once.
How the values were obtained:
Assay type in all cases: cell-based
human TAS2R4 = target: T1, human TAS2R4 (Homo sapiens, UniProt Q9NYW5); assay: Calcium imaging assay (FLIPR), HEK293T-Gα16gust44 cells transfected with human TAS2R4; details: TAS2R4, positive control at 3 mM
T1 construct: expressed in transfected cells; host or cells: HEK293T-Gα16gust44
T1 sequence (Q9NYW5 1-299): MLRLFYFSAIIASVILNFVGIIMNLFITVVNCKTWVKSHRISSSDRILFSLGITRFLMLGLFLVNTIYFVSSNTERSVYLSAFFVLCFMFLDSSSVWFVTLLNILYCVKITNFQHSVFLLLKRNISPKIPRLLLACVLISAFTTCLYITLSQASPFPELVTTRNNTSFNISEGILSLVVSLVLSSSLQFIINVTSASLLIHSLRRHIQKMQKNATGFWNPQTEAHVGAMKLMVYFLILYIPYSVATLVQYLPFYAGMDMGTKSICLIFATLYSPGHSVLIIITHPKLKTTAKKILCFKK
Protocol: (§1) This set of bile acids was chosen because of their commercial availability in high purities, their diversity within the class of bile acids and their previous detection and quantitation in human blood. Stock solutions were prepared in DMSO.
(§2) As basal growth medium for the HEK293T-Gα16gust44 cell line[17],[59] served Dulbecco’s modified eagle medium (DMEM) (Thermo Fisher Scientific, Darmstadt, Germany) supplemented with 10 % fetal bovine serum (Sigma-Aldrich, Steinheim, Germany), 2 mM L-glutamine (Sigma-Aldrich, Steinheim, Germany), 100 units/ml penicillin (Sigma Aldrich, Steinheim, Germany) and 100 µg/ml streptomycin (Sigma Aldrich, Steinheim, Germany). Growth conditions were 37 °C, 5 % CO2 and saturated air-humidity[60].
(§3) HEK293T-Gα16gust44 cells were seeded on poly-D-lysine (10 µg/ml) coated 96-well plates to reach a confluence of 40-60 % the next day. For transient transfection 150 ng of plasmid DNA containing the receptor of interest and 0.3 µl lipofectamine 2000 (Thermo Fisher Scientific, Darmstadt, Germany) per well were used and transfection took place according to the manual of lipofectamine 2000. […] The empty vector DNA (mock) was transfected as negative control[14],[41].
(§4) Cells were loaded using the calcium-sensitive fluorescent dye Fluo-4-AM (Abcam, Cambridge, Great Britain) in the presence of 2.5 mM probenecid (Sigma-Aldrich, Steinheim, Germany) the day after transfection[13],[41]. 1 h after loading, cells were washed with C1 buffer using a BioTek Cell Washer, incubated in the dark for half an hour and washed again. For automated agonist application and measurement of fluorescence changes, a FLIPR^TETRA device (Molecular Devices, San José, United States) was used. Viability of cells was tested by application of 100 nM Somatostatin 14 (Bachem, Bubendorf, Switzerland)[42].
(§5) Measured data were negative control corrected by subtracting the signal of the mock-transfected cells and exported to Microsoft Excel using the FLIPR software ScreenWorks 4.2. In Microsoft Excel software, standardization of maximum fluorescence intensities to the basal fluorescence and normalization to the buffer-only control was done to calculate the relative fluorescence changes (ΔF/F).
(§6) Initial screening experiments performed in duplicate wells were confirmed by at least one replication and representative traces were selected for display. All dose-response relationships were determined by three independent experiments (biological replicates) performed in duplicates (technical replicates). Threshold concentrations, defined as lowest substance concentrations leading to statistically significant elevated fluorescence changes in receptor-transfected cells compared with empty vector-transfected cells, were determined using SigmaPlot with Student’s t-test to evaluate statistical significance (p < 0.01).

human TAS2R46 = target: T2, human TAS2R46 (Homo sapiens, UniProt P59540); assay: Calcium imaging assay (FLIPR), HEK293T-Gα16gust44 cells transfected with human TAS2R46; details: TAS2R46, positive control at 10 µM
T2 construct: expressed in transfected cells; host or cells: HEK293T-Gα16gust44
T2 sequence (P59540 1-309): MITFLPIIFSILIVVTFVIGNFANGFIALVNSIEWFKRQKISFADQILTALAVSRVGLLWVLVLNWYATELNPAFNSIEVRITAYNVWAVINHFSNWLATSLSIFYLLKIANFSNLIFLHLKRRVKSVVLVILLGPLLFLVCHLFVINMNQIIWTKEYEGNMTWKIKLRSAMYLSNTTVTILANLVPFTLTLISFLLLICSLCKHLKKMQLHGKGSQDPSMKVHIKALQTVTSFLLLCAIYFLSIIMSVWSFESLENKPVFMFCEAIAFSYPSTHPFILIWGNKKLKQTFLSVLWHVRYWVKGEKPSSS
Protocol: as §1, §2, §3, §4, §5, §6

human TAS2R14 = target: T3, human TAS2R14 (Homo sapiens, UniProt Q9NYV8); assay: Calcium imaging assay (FLIPR), HEK293T-Gα16gust44 cells transfected with human TAS2R14
T3 construct: expressed in transfected cells; host or cells: HEK293T-Gα16gust44
T3 sequence (Q9NYV8 1-317): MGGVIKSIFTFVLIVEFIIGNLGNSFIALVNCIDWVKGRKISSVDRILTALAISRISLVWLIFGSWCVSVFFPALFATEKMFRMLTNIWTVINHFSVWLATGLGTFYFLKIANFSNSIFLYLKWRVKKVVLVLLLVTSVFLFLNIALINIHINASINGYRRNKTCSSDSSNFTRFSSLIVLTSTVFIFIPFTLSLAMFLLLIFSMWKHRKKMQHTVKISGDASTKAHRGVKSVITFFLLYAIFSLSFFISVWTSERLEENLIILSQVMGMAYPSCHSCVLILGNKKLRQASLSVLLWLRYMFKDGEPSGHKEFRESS
Protocol: as §1, §2, §3, §4, §5, §6

human TAS2R39 = target: T4, human TAS2R39 (Homo sapiens, UniProt P59534); assay: Calcium imaging assay (FLIPR), HEK293T-Gα16gust44 cells transfected with human TAS2R39; details: TAS2R39, positive control at 3 mM
T4 construct: expressed in transfected cells; host or cells: HEK293T-Gα16gust44
T4 sequence (P59534 1-338): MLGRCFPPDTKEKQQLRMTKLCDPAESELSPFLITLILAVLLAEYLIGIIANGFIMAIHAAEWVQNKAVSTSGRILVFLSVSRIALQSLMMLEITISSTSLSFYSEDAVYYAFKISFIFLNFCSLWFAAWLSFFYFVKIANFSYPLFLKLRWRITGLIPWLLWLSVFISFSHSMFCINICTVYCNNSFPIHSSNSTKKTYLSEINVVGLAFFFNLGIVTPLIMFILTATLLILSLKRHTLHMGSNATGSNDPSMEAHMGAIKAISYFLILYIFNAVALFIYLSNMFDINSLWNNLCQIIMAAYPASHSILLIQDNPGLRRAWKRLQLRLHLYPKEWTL
Protocol: as §1, §2, §3, §4, §5, §6

human TAS2R1 = target: T5, human TAS2R1 (Homo sapiens, UniProt Q9NYW7); assay: Calcium imaging assay (FLIPR), HEK293T-Gα16gust44 cells transfected with human TAS2R1; details: TAS2R1, positive control at 1 mM
T5 construct: expressed in transfected cells; host or cells: HEK293T-Gα16gust44
T5 sequence (Q9NYW7 1-299): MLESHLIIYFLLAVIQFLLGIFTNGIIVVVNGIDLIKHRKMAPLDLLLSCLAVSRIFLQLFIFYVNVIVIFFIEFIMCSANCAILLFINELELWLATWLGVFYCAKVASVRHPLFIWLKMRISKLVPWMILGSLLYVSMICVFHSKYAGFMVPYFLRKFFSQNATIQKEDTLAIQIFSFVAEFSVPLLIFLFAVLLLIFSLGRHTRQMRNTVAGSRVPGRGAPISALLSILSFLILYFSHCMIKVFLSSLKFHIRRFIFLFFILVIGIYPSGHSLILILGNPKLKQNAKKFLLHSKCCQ
Protocol: as §1, §2, §3, §4, §5, §6

In the case of `COc1cc2c(c(OC)c1OC)-c1ccc(OC)c(=O)cc1[C@@H](NC(C)=O)CC2` [Colchicin], the “Efficacy = maximal amplitude (ΔF/F)” value (human TAS2R4; mean) is reported as 0.02059 and the “Efficacy (maximal amplitude ΔF/F), individual data points” value (shortened to “Efficacy (maximal amplitude ΔF/F)”) (human TAS2R4; single replicates) is reported as 0.02499 and 0.02039 and 0.01223.

`O=C1C[C@@H]2OCC=C3CN4CC[C@]56c7ccccc7N1[C@H]5[C@H]2[C@H]3C[C@H]46` [Strychnin] was tested, and the “Efficacy (maximal amplitude ΔF/F)” value (human TAS2R46; single replicates) was 0.1901 and 0.2368 and 0.2851.

For `COc1cccc2c1cc([N+](=O)[O-])c1c(C(=O)O)cc3c(c12)OCO3` [aristolochic acid, reference compound], the “Efficacy = maximal amplitude (ΔF/F)” value (human TAS2R14; TAS2R14, positive control at 10 µM, mean) was 0.4945, the “Efficacy (maximal amplitude ΔF/F)” value (human TAS2R14; TAS2R14, positive control at 10 µM, single replicates) was 0.6939 and 0.4242 and 0.3654 and the “Efficacy (signal amplitude) versus control stimulus, TAS2R14” value (human TAS2R14; highest applied concentrations, control 10 µM aristolochic acid) was “about twice as high as the most effective bile acids”.

For `CC[N+](CC)(CC(=O)Nc1c(C)cccc1C)Cc1ccccc1` [denatonium benzoate, reference compound], the “Efficacy = maximal amplitude (ΔF/F)” value (human TAS2R39; mean) was 0.08257 and the “Efficacy (maximal amplitude ΔF/F)” value (human TAS2R39; single replicates) was 0.09973 and 0.06456 and 0.07602.

For `C=C(C)[C@@H]1[C@H]2OC(=O)[C@@H]1[C@]1(O)C[C@H]3O[C@]34C(=O)O[C@H]2[C@]14C` [picrotoxinin, reference compound], the “Efficacy = maximal amplitude (ΔF/F)” value (human TAS2R1; mean) was 0.1084 and the “Efficacy (maximal amplitude ΔF/F)” value (human TAS2R1; single replicates) was 0.08063 and 0.1121 and 0.1325.

With `O=C1C[C@@H]2OCC=C3CN4CC[C@]56c7ccccc7N1[C@H]5[C@H]2[C@H]3C[C@H]46` [strychnine, reference compound] the “Efficacy = maximal amplitude (ΔF/F)” value (human TAS2R46; mean) was 0.2373.

Reference: publication PMC10247784, “Physiological activation of human and mouse bitter taste receptors by bile acids” (Communications Biology, 2023)
